Test results as given in the OligoGym collection.
“And” between values parts separate entries of the source, which are not always exact repeats. Equal values may be shown once. HELM strings list units from the 5' end as sugar, base in round brackets, then linkage (d deoxyribose, r ribose, m 2'-O-methyl, p phosphodiester). Methylation of C is not given here. [moe] = 2'-O-(2-methoxyethyl) (MOE); [cEt] = constrained ethyl (cEt); [sp] = phosphorothioate linkage

Target: HBV
Settings: ASO

Substance	target mRNA inhibition (HepG2, 0.07 µM)	also measured
RNA1{[moe](G)[sp].[moe](A)[sp].d(G)[sp].d(G)[sp].d(C)[sp].d(A)[sp].d(T)[sp].d(A)[sp].d(G)[sp].d(C)[sp].d(A)[sp].[moe](G)[sp].[moe](C)[sp].[moe](A)[sp].[moe](G)[sp].[moe](G)}$$$$V2.0	0%	–
RNA1{[moe](G)[sp].[moe](A)[sp].[moe](A)[sp].d(C)[sp].d(C)[sp].d(A)[sp].d(C)[sp].d(T)[sp].d(G)[sp].d(A)[sp].d(A)[sp].d(C)[sp].[moe](A)[sp].[moe](A)[sp].[moe](A)[sp].[moe](T)[sp].[moe](G)}$$$$V2.0	39% and 47%	–
RNA1{[moe](T)[sp].[moe](G)[sp].[moe](G)[sp].[moe](A)[sp].[moe](G)[sp].d(C)[sp].d(C)[sp].d(A)[sp].d(C)[sp].d(C)[sp].d(A)[sp].d(G)[sp].d(C)[sp].d(A)[sp].[moe](G)[sp].[moe](G)}$$$$V2.0	33% and 32%	–
RNA1{[moe](G)[sp].[moe](A)[sp].[moe](A)[sp].d(C)[sp].d(C)[sp].d(A)[sp].d(C)[sp].d(T)[sp].d(G)[sp].d(A)[sp].d(A)[sp].d(C)[sp].d(A)[sp].[cEt](A)[sp].[cEt](A)[sp].[cEt](T)}$$$$V2.0	30% and 48%	–
RNA1{[moe](G)[sp].[moe](G)[sp].[moe](C)[sp].d(A)[sp].d(T)[sp].d(A)[sp].d(G)[sp].d(C)[sp].d(A)[sp].d(G)[sp].d(C)[sp].d(A)[sp].[moe](G)[sp].[moe](G)[sp].[moe](A)[sp].[moe](T)}$$$$V2.0	54% and 57%	–
RNA1{[moe](C)[sp].[cEt](G)[sp].[cEt](C)[sp].d(A)[sp].d(G)[sp].d(T)[sp].d(A)[sp].d(T)[sp].d(G)[sp].d(G)[sp].d(A)[sp].d(T)[sp].d(C)[sp].[cEt](G)[sp].[cEt](G)[sp].[moe](C)}$$$$V2.0	81% and 78%	–
RNA1{[moe](A)[sp].[cEt](A)[sp].d(G)[sp].d(C)[sp].d(G)[sp].d(A)[sp].d(A)[sp].d(G)[sp].d(T)[sp].d(G)[sp].d(C)[sp].d(A)[sp].[cEt](C)[sp].[moe](A)[sp].[cEt](C)[sp].[moe](G)}$$$$V2.0	82% and 75%	target mRNA inhibition (HepG2, 0.0092593 µM): 20%; target mRNA inhibition (HepG2, 0.0277778 µM): 40%; target mRNA inhibition (HepG2, 0.0833333 µM): 75%; target mRNA inhibition (HepG2, 0.25 µM): 89%
RNA1{[moe](A)[sp].[cEt](A)[sp].[cEt](G)[sp].d(C)[sp].d(G)[sp].d(A)[sp].d(A)[sp].d(G)[sp].d(T)[sp].d(G)[sp].d(C)[sp].d(A)[sp].d(C)[sp].[cEt](A)[sp].[cEt](C)[sp].[moe](G)}$$$$V2.0	80% and 85%	target mRNA inhibition (HepG2, 0.0092593 µM): 28%; target mRNA inhibition (HepG2, 0.0277778 µM): 57%; target mRNA inhibition (HepG2, 0.0833333 µM): 80%; target mRNA inhibition (HepG2, 0.25 µM): 89%
RNA1{[moe](C)[sp].[cEt](A)[sp].[cEt](A)[sp].d(A)[sp].d(T)[sp].d(G)[sp].d(G)[sp].d(C)[sp].d(A)[sp].d(C)[sp].d(T)[sp].d(A)[sp].d(G)[sp].[cEt](T)[sp].[cEt](A)[sp].[moe](A)}$$$$V2.0	55% and 64%	–
RNA1{[moe](T)[sp].[moe](C)[sp].[moe](C)[sp].d(G)[sp].d(C)[sp].d(A)[sp].d(G)[sp].d(T)[sp].d(A)[sp].d(T)[sp].d(G)[sp].d(G)[sp].[moe](A)[sp].[moe](T)[sp].[moe](C)[sp].[moe](G)[sp].[moe](G)}$$$$V2.0	68% and 58%	–
RNA1{[moe](G)[sp].[moe](G)[sp].[moe](T)[sp].[moe](G)[sp].d(A)[sp].d(A)[sp].d(G)[sp].d(C)[sp].d(G)[sp].d(A)[sp].d(A)[sp].d(G)[sp].d(T)[sp].[moe](G)[sp].[moe](C)[sp].[moe](A)[sp].[moe](C)}$$$$V2.0	63% and 59%	–
RNA1{[moe](G)[sp].[moe](A)[sp].[moe](T)[sp].[moe](G)[sp].[moe](A)[sp].d(G)[sp].d(G)[sp].d(C)[sp].d(A)[sp].d(T)[sp].d(A)[sp].d(G)[sp].d(C)[sp].d(A)[sp].[moe](G)[sp].[moe](C)}$$$$V2.0	45% and 31%	–
